# Tested on: Sorbitol oxidase
# Test: Substrate range study of sorbitol oxidase (relative POx activities for substrates)
# Assay type: biochemical, Streptomyces sp. H-7775
# [1] = substrates 50 mM in 10 mM phosphate buffer pH 7.0, relative to sorbitol
# Experimental: All substrates used in the assay were 50 mM in 10 mM phosphate buffer pH 7.0.
smiles,measurement,setting,value
OC[C@@H](O)[C@@H](O)[C@H](O)[C@@H](O)CO [D-Sorbitol],"Relative Activity (+, 0)",[1],++++++ (++++++=100%)
OCCO [Ethylene glycol],"Relative Activity (+, 0)",pH 7,0
CC(O)CO (stereo not drawn) [Propylene glycol],"Relative Activity (+, 0)",[1],0

# Reference: patent publication US7919295B2, “Polyol oxidases” (Danisco US Inc., priority 2006, dated 2011)
